Target: T1, His6-Flag-TEV-NLRP3 (134-1036) (Homo sapiens, UniProt Q96P20)
T1 construct: fused on or other part: N-terminal His6 tag, Flag tag and TEV cleavage site
Assay: NLRP3 fluorescence polarization (FP) binding assay, competition with probe NP3-301
Details: competition with NP3-301 for binding to NLRP3 (134-1036), 30 nM protein
Protocol: This experiment uses fluorescence polarization technology to detect and evaluate the binding assay.
The fluorescent probe used in this assay is the compound NP3-301 in the Journal of Molecular Biology (2021) 433, 167309, which was synthesized with reference to this literature.
His6-Flag-TEV-NLRP3 (134-1036) protein (SEQ NO. 1) was purchased from Kaihuiruizhi Biotech (Shanghai) Co., Ltd. (ChemPartner), and was customed for expression.
Prepare 1× assay buffer: 50 mM Hepes, pH 7.4, 150 mM NaCl, 2.5 mM MgCl2, 0.005% Tween-20, 1 mM TCEP, 100 μM ATP.
First, 2.5 μL of 4× compound solution was added to a black shallow 384-well plate (Greiner, 784076), the shallow well plate was sealed, and centrifuged at 1000 rpm for 1 min; then 2× NLPR3 protein solution (final concentration of 30 nM) was added, the shallow well plate was sealed, centrifuged at 1000 rpm for 1 min, and incubated at room temperature for 60 min. Finally, 2.5 μL of 4× NP3-301 (final concentration of 0.5 nM) was added, the shallow well plate was sealed, centrifuged at 1000 rpm for 1 min, and incubated at room temperature for 30 min. Envision was used to read the fluorescence polarization values of λex=485+20 nm and kem=535+25 nm. GraphPad Prism 9.5.0 was used to analyze the data, and the IC50 value of the competition between the compound and NP3-301 for binding to His6-Flag-TEV-NLRP3 (134-1036) was fitted by four-parameter logistic. The compounds of the present disclosure have good NLRP3 binding activity, and the test results of some representative compounds are shown in Table 1.

T1 sequence (Q96P20 134-1036 limits assumed): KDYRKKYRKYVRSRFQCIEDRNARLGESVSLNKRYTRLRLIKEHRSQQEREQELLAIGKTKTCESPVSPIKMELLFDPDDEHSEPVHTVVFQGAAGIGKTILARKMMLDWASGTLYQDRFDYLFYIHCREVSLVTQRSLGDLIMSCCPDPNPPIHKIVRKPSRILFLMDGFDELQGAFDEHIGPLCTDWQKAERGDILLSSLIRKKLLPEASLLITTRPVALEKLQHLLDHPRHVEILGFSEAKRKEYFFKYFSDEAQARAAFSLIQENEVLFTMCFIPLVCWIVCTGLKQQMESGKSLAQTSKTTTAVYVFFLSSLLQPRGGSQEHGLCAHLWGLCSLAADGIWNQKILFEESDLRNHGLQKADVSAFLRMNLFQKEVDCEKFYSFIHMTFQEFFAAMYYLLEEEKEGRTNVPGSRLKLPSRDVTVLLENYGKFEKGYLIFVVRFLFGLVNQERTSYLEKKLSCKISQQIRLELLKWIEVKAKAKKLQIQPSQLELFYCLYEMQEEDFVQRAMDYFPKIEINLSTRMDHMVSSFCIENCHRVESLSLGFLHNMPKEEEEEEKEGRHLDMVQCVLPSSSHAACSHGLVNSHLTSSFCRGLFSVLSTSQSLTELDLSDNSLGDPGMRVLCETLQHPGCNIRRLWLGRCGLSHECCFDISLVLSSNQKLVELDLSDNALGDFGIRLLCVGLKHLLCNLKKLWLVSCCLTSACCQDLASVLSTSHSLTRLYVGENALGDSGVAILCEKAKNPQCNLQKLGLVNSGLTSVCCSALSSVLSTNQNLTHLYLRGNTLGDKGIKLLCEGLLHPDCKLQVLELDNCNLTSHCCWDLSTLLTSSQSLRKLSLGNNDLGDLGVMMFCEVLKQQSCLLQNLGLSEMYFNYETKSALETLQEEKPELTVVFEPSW

| IC50 [nM] | Structure (SMILES) |
| --- | --- |
| 100 to 500 | Cc1cc(C(F)(F)F)cc(O)c1-c1ccc2ccc(N)nc2n1 [Compound 7] |
| 100 to 500 | Cc1cc(C(F)(F)F)cc(O)c1-c1ccc2oc(N[C@@H]3COCC[C@H]3O)nc2n1 [Compound 81] |
| > 1000 | Cc1cc(C(F)(F)F)cc(O)c1-c1cc2ccn(Cc3cc(C#N)ccn3)c2nn1 [Compound 121] |
| 100 to 500 | Cc1cc(C(F)(F)F)cc(O)c1-c1cc2ccn(C3CS(=O)(=O)C3)c2nn1 [Compound 125] |
| ≤ 100 | Cc1cc(C(F)(F)F)cc(O)c1-c1ccc2oc(NC[C@@H]3COCCN3S(C)(=O)=O)nc2n1 [Compound 258] |
| 100 to 500 | CC(=O)N1CC[C@@H](CNc2nc3nc(-c4c(C)cc(C(F)(F)F)cc4O)ccc3o2)C1 [Compound 271] |
| 100 to 500 | Cc1cc(C(F)(F)F)cc(O)c1-c1ccc2oc(N3CC4(COC4)C3)nc2n1 [Compound 357] |
| 100 to 500 | CCN1CC2(CCN(c3nc4nc(-c5c(C)cc(C(F)(F)F)cc5O)ccc4o3)CC2)C1 [Compound 358] |
| ≤ 100 | CC(=O)N1CC2(CCN(c3nc4nc(-c5c(C)cc(C(F)(F)F)cc5O)ccc4o3)CC2)C1 [Compound 359] |
| 100 to 500 | Cc1cc(C(F)(F)F)cc(O)c1-c1ccc2oc(N3CCC4(CCOC4)C3)nc2n1 (centres unmarked) [Compound 361] |
| ≤ 100 | Cc1cc(C(F)(F)F)cc(O)c1-c1ccc2oc(N3CCC4(CC3)COC4)nc2n1 [Compound 362] |
| ≤ 100 | CC(=O)N1CCC2(CCN(c3nc4nc(-c5c(C)cc(C(F)(F)F)cc5O)ccc4o3)C2)C1 (centres unmarked) [Compound 364] |
| 100 to 500 | CC(=O)N1CCC2(CC1)CN(c1nc3nc(-c4c(C)cc(C(F)(F)F)cc4O)ccc3o1)CCO2 [Compound 365] |
| 100 to 500 | CC(=O)N1CCC2(CC1)CCN(c1nc3nc(-c4c(C)cc(C(F)(F)F)cc4O)ccc3o1)CC2 [Compound 366] |
| ≤ 100 | Cc1cc(C(F)(F)F)cc(O)c1-c1ccc2oc(N3CCC4(CCCCO4)CC3)nc2n1 [Compound 368] |
| 100 to 500 | CC(=O)N1CCOC2(CCN(c3nc4nc(-c5c(C)cc(C(F)(F)F)cc5O)ccc4o3)CC2)C1 [Compound 369] |
| 100 to 500 | Cc1cc(C(F)(F)F)cc(O)c1-c1ccc2oc(N3CCOC[C@@H]3C)nc2n1 [Compound 373] |
| ≤ 100 | Cc1cc(C(F)(F)F)cc(O)c1-c1ccc2oc(N3CCO[C@H](C)C3)nc2n1 [Compound 374] |

| IC50 [nM] | Structure (SMILES) |
| --- | --- |
| ≤ 100 | Cc1cc(C)c(-c2ccc3oc(N4CCOCC4)nc3n2)c(O)c1 [Compound 375] |
| 100 to 500 | Cc1cc(C(F)(F)F)cc(O)c1-c1ccc2oc(N3C[C@H]4C[C@@H]3CO4)nc2n1 [Compound 379] |
| 100 to 500 | Cc1cc(C(F)(F)F)cc(O)c1-c1ccc2oc(N3C[C@@H]4C[C@H]3CO4)nc2n1 [Compound 380] |
| 100 to 500 | Cc1cc(C)c(-c2ccc3oc(N4CCS(=O)(=O)CC4)nc3n2)c(O)c1 [Compound 385] |
| ≤ 100 | Cc1cc(C(F)(F)F)cc(O)c1-c1ccc2oc(N3CCS(=O)(=O)c4ccccc43)nc2n1 [Compound 386] |
| ≤ 100 | CCS(=O)(=O)N1CCN(c2nc3nc(-c4c(C)cc(C)cc4O)ccc3o2)CC1 [Compound 391] |
| ≤ 100 | CCN1C[C@H](Nc2nc3nc(-c4c(C)cc(C(F)(F)F)cc4O)ccc3o2)CC(F)(F)C1 [Compound 398] |
| ≤ 100 | Cc1cc(C(F)(F)F)cc(O)c1-c1ccc2oc(N[C@@H]3CCCN(CC(C)(C)O)C3)nc2n1 [Compound 403] |
| ≤ 100 | Cc1cc(C(F)(F)F)cc(O)c1-c1ccc2oc(N[C@@H]3CCCN(C(=O)C4CC4)C3)nc2n1 [Compound 405] |
| ≤ 100 | CC(=O)N1CCC[C@@H](Nc2nc3nc(-c4c(C)cc(C(F)(F)F)cc4O)ccc3o2)C1 [Compound 407] |
| ≤ 100 | Cc1cc(C(F)(F)F)cc(O)c1-c1ccc2oc(N[C@@H]3CCCN(S(C)(=O)=O)C3)nc2n1 [Compound 408] |
| 100 to 500 | Cc1cc(C(F)(F)F)cc(O)c1-c1ccc2oc(NC3CCN(S(C)(=O)=O)CC3)nc2n1 [Compound 411] |
| 100 to 500 | CC(=O)N1CCC(Nc2nc3nc(-c4c(C)cc(C(F)(F)F)cc4O)ccc3o2)CC1 [Compound 412] |
| 100 to 500 | CC(=O)N1CCOC[C@H]1CNc1nc2ccc(-c3c(C)cc(C(F)(F)F)cc3O)nn2n1 [Compound 419] |
| ≤ 100 | Cc1cc(Cl)cc(O)c1-c1ccc2nc(N3CCOCC3)nn2n1 [Compound 420] |
| ≤ 100 | Cc1cc(C(F)(F)F)cc(O)c1-c1ccc2cc(N3CCOC[C@H]3C)nn2n1 [Compound 438] |
| 500 to 1000 | CC(=O)N1CCOC[C@H]1CNc1nc2nc(-c3c(C)cc(C(F)(F)F)cc3O)ccn2n1 [Compound 453] |
| ≤ 100 | Cc1cc(C(F)(F)F)cc(O)c1-c1ccc2nc(N[C@@H]3CCCN(CCO)C3)nn2n1 [Compound 454] |

More lines, now with the values behind:

| Structure (SMILES) | IC50 [nM] |
| --- | --- |
| Cc1cc(C(F)(F)F)cc(O)c1-c1ccc2[nH]c(N)nc2n1 [Compound 1] | 100 to 500 |
| Cc1cc(C(F)(F)F)cc(O)c1-c1ccc2[nH]c(CC(=O)O)nc2n1 [Compound 4] | 500 to 1000 |
| CCN1CCC[C@H](n2ccc3cc(-c4c(C)cc(C(F)(F)F)cc4O)nnc32)C1 [Compound 11-b] | 100 to 500 |
| Cc1cc(C(F)(F)F)cc(O)c1-c1ccc2nc(N)nn2n1 [Compound 13] | 500 to 1000 |
| Cc1cc(C(F)(F)F)cc(O)c1-c1ccc2oc(NC3CC3)nc2n1 [Compound 82] | ≤ 100 |
| Cc1cc(C(F)(F)F)cc(O)c1-c1cc2ccn(C3CCS(=O)(=O)C3)c2nn1 (centres unmarked) [Compound 123] | 500 to 1000 |
| Cc1cc(C(F)(F)F)cc(O)c1-c1cc2ccn(C3CCS(=O)(=O)CC3)c2nn1 [Compound 124] | 100 to 500 |
| CC(=O)N1CCOC[C@H]1CNc1nc2nc(-c3c(C)cc(C)cc3O)ccc2o1 [Compound 254] | 100 to 500 |
| COc1cc(C)c(-c2ccc3oc(NC[C@@H]4COCCN4C(C)=O)nc3n2)c(O)c1 [Compound 255] | 500 to 1000 |
| CCS(=O)(=O)N1CCOC[C@H]1CNc1nc2nc(-c3c(C)cc(C(F)(F)F)cc3O)ccc2o1 [Compound 259] | ≤ 100 |
| CC(=O)N1C[C@@H](O)[C@H](Nc2nc3nc(-c4c(C)cc(C(F)(F)F)cc4O)ccc3o2)C1 [Compound 272] | ≤ 100 |
| CC(=O)N1CC[C@H](Nc2nc3nc(-c4c(C)cc(C(F)(F)F)cc4O)ccc3o2)C1 [Compound 273] | 100 to 500 |
| CC(=O)N1C[C@@H]2CN(c3nc4nc(-c5c(C)cc(C(F)(F)F)cc5O)ccc4o3)C[C@@H]2C1 [Compound 360] | ≤ 100 |
| Cc1cc(C(F)(F)F)cc(O)c1-c1ccc2oc(N3CCC4(CCO4)CC3)nc2n1 [Compound 363] | ≤ 100 |
| CCN1CCC2(CC1)CCN(c1nc3nc(-c4c(C)cc(C(F)(F)F)cc4O)ccc3o1)CC2 [Compound 367] | 100 to 500 |
| CC(=O)N1CCCC2(CCN(c3nc4nc(-c5c(C)cc(C(F)(F)F)cc5O)ccc4o3)CC2)C1 [Compound 370] | 500 to 1000 |

| Structure (SMILES) | IC50 [nM] |
| --- | --- |
| Cc1cc(C(F)(F)F)cc(O)c1-c1ccc2oc(N3CCO[C@@H](C)C3)nc2n1 [Compound 372] | ≤ 100 |
| Cc1cc(C(F)(F)F)cc(O)c1-c1ccc2oc(N3CCCOCC3)nc2n1 [Compound 377] | ≤ 100 |
| Cc1cc(C(F)(F)F)cc(O)c1-c1ccc2oc(N3CC4CC(C3)O4)nc2n1 [Compound 378] | 100 to 500 |
| Cc1cc(C(F)(F)F)cc(O)c1-c1ccc2oc(C3CCCNC3)nc2n1 (centres unmarked) [Compound 382] | 100 to 500 |
| CC(=O)N1CCN(c2nc3nc(-c4c(C)cc(C(F)(F)F)cc4O)ccc3o2)CC1 [Compound 389] | ≤ 100 |
| CCS(=O)(=O)N1CCN(c2nc3nc(-c4c(C)cc(C(F)(F)F)cc4O)ccc3o2)[C@@H](C)C1 [Compound 393] | 100 to 500 |
| Cc1cc(C(F)(F)F)cc(O)c1-c1ccc2oc(N3CC4CC(C3)N4S(C)(=O)=O)nc2n1 [Compound 395] | ≤ 100 |
| Cc1cc(C(F)(F)F)cc(O)c1-c1ccc2oc(N3CCN(C)C3=O)nc2n1 [Compound 396] | ≤ 100 |
| Cc1cc(C(F)(F)F)cc(O)c1-c1ccc2oc(N[C@@H]3CCCN(C4COC4)C3)nc2n1 [Compound 401] | ≤ 100 |
| Cc1cc(C(F)(F)F)cc(O)c1-c1ccc2oc(N[C@@H]3CCCN(CC#N)C3)nc2n1 [Compound 402] | ≤ 100 |
| Cc1cc(C(F)(F)F)cc(O)c1-c1ccc2oc(N[C@@H]3CCCN(S(=O)(=O)C4CC4)C3)nc2n1 [Compound 406] | ≤ 100 |
| Cc1cc(C(F)(F)F)cc(O)c1-c1ccc2nc(NC[C@@H]3COCCN3S(C)(=O)=O)nn2n1 [Compound 421] | 500 to 1000 |
| CC(=O)N1CCOC[C@H]1CNc1nc2c(C)cc(-c3c(C)cc(C(F)(F)F)cc3O)nn2n1 [Compound 425] | 100 to 500 |
| CCN1CCC[C@@H](Nc2nc3ccc(-c4c(C)cc(F)cc4O)nn3n2)C1 [Compound 449] | ≤ 100 |
| [2H]C([2H])([2H])C(=O)N1CCOC[C@H]1CNc1nc2nc(-c3c(C)cc(C(F)(F)F)cc3O)ccc2o1 [Compound 450] | ≤ 100 |
| CC(=O)N1CCOC[C@H]1CNc1nc2nc(-c3c(C)cc(Cl)cc3O)cc(C)c2o1 [Compound 452] | ≤ 100 |

Reference: patent US20260234150A1, “COMPOUND FOR INHIBITING NLRP3, PREPARATION METHOD, AND USE” (DOVETREE MEDICINES UNUS, INC., priority 2023, published 2026)
